Data: publication PMC6396940, “EhFP10: A FYVE family GEF interacts with myosin IB to regulate cytoskeletal dynamics during endocytosis in Entamoeba histolytica” (PLoS Pathogens, 2019)
Ends that are not written are not given here.

Assays:
[1] = biological target: EhMySH3 (SH3 domain of EhMyosin IB) (Entamoeba histolytica, UniProt C4LUC7); assay: SPR binding of peptides to immobilized EhMySH3 (Autolab SPR); settings: for relative SPR binding response: 0.8 mM of each peptide passed over immobilized EhMySH3, compared with the other peptides; for Kd: SPR kinetic analysis, peptide passed over immobilized EhMySH3, 10 mM HEPES, 150 mM NaCl, 3 mM EDTA, 0.05% NP-40, pH 7.4, 25°C, text: values could not be calculated accurately (peptides about 1000 Da), read-out: Binding affinity (KD, equilibrium dissociation constant)
Description: For binding studies of EhMySH3 with peptides, an Autolab SPR apparatus was used at the Advanced Instrumentation Research Facility, Jawaharlal Nehru University, New Delhi, India. Here, the 11-mercaptoundecanoic acid (11MUA) monolayer on the surface of the gold chip (Autolab) was activated by N-hydroxysuccinimide (NHS; 0.05 M)/[…] (EDC; 0.2 M). EhMySH3 protein (ligand) at a concentration of 37 μM was immobilized in channel 1 on the activated surface of the gold chip in 10 mM sodium acetate buffer (pH 5.0) up to 700 RU. During experimentation, channel 1 was used to pass the analytes (peptides) while channel 2 was used as a blank (the signals of the analyte with a ligand-free surface). After ligand immobilization, the surface was blocked with 100 mM ethanolamine at pH 8.5, followed by regeneration using 50 mM NaOH. The different peptides, each at various concentrations, were each injected at a rate of 20 μl/min across the sensor chip surface and the association kinetics and dissociation kinetics were monitored for 200 s and 100 s, respectively. All of the dilutions were done in running buffer, i.e., 10 mM HEPES, 150 mM NaCl, 3 mM EDTA, 0.05% NP-40 surfactant [pH 7.4].
All of the data were recorded at 25°C. For the evaluation of the kinetics, differential sensorgrams were analyzed using Autolab SPR Kinetic Evaluation software.

[2] = biological target: c-terminal SH3 domain of EhMyosin IB (EhMySH3) (Entamoeba histolytica); assay: SPR; Autolab SPR; EhMySH3 immobilised (1.175 ng/mm^3), cterEhFP10 at various concentrations passed over; association 400 s, dissociation 150 s; 25 C
[3] = biological target: filamentous rabbit muscle actin (F-actin) (rabbit) (UniProt P68135); assay: SPR; Autolab SPR; F-actin immobilised (0.67 ng/mm^3; 50 mM sodium acetate pH 4.1, 0.05 mM CaCl2, 0.05 mM ATP, 0.125 mM DTT), cterEhFP10 at various concentrations passed over; 25 C
[4] = biological target: filamentous rabbit muscle actin (F-actin) (rabbit) (UniProt P68135)
[5] = biological target: c-terminal SH3 domain of EhMyosin IB (EhMySH3) (Entamoeba histolytica); assay: SPR; Autolab SPR; EhMySH3 immobilised on an 11-MUA gold chip (NHS/EDC, up to 700 RU), peptides injected at 20 ul/min; 10 mM HEPES, 150 mM NaCl, 3 mM EDTA, 0.05% NP-40, pH 7.4; 25 C

Which “relative SPR binding response” value [1] does the source give for “KVAPPIPHR [P2, pseudo-symmetrical class I + II peptide … from EhFP10, co-crystallized with EhMySH3]” here?
Its value is “highest binding response”.

NIVPIQPPQ [P3] was tested. Which Kd [1] did it give?
The Kd was 1000 µM.

For QHCPNVPII [P5], which Kd [1] is on record?
The Kd was 700 µM.

Which “relative SPR binding response” value [1] does the source give for “RPQPPTP [P4, class I peptide RPQPPTP from EhFP10]” here?
Its value is “weakest binding”.

SLPPKPLR [P1] was tested. Which Kd [1] did it give?
The Kd was 400 µM.

“c-terminal domain of EhFP10 (cterEhFP10) (domain or fragment)” was tested. Which Kd [2] did it give?
Its Kd is 0.2 µM.

And the Kd [3]?
The Kd was 0.087 µM.

And the thickness of actin bundles by TEM, filaments of 4 nm to 7 nm without and bundles with 10 uM to 20 uM cterEhFP10 [4]?
The thickness of actin bundles by TEM, filaments of 4 nm to 7 nm without and bundles with 10 uM to 20 uM cterEhFP10 was 120 nm.

B1: peptide P3 from Rho family GTPase (peptide)
peptide: NIVPIQPPQ
modifications: not fully specified
With B1 as the molecule, how does the Kd [5] read?
Its Kd is 1000 µM.

B2: peptide P5 from Rho family GTPase (peptide)
peptide: QHCPNVPII
modifications: not fully specified
Which Kd [5] does the source give for B2 here?
Its Kd is 700 µM.
